Assay results as given in patent publication US12077503B2, “Substituted cyclic amides and their use as herbicides” (FMC CORPORATION, priority 2015, dated 2024).

How the values were obtained:
Format in all cases: in vivo
[1] = system: ducksalad (Heteranthera limosa); test: Test B flooded paddy test; conditions: Heteranthera limosa, 250 g ai/ha, Flood; 0 to 100 scale where 0 is no effect and 100 is complete control; read-out: Ducksalad plant response rating
Summary of the method: (§1)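 2-leaf plants; pots flooded 3 cm over soil; cpd added to paddy water; depth held; greenhouse 13–15 d; visual rating vs controls, 0 = no effect, 100 = complete control.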

[2] = system: barnyardgrass (Echinochloa crus-galli); test: Test B flooded paddy test; conditions: Echinochloa crus-galli, 250 g ai/ha, Flood; 0 to 100 scale where 0 is no effect and 100 is complete control; read-out: Barnyardgrass plant response rating
Summary of the method: as §1

[3] = system: sedge, umbrella (small-flower umbrella sedge, Cyperus difformis); test: Test B flooded paddy test; conditions: Cyperus difformis, 250 g ai/ha, Flood; 0 to 100 scale where 0 is no effect and 100 is complete control; read-out: Sedge, Umbrella plant response rating
Summary of the method: as §1

rice (Oryra sativa) = test: Test B flooded paddy test; conditions: Oryza sativa, 250 g ai/ha, Flood; 0 to 100 scale where 0 is no effect and 100 is complete control; read-out: Rice plant response rating
Summary of the method: as §1

[4] = system: giant foxtail (Setaria faberii); test: Test A postemergence; conditions: Setaria faberi, post-emergence, 240 h, Postemergence, read-out: Foxtail, Giant plant response rating (0 to 100 scale); for pest or weed control at 125 g/ha: 125 g ai/ha, visual rating about 10 d after treatment; for pest or weed control at 31 g/ha: 31 g ai/ha, 0 is no effect, 100 is complete control
Summary of the method: (§2)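 Greenhouse, ~10 d after spray; visual injury vs untreated controls, 0 = no effect, 100 = complete control. Preemergence: directed soil spray over planted seeds. Postemergence: plants 2–10 cm, 1–2 leaf stage. Loam/sand blend. Compound in non-phytotoxic solvent with surfactant.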

[5] = system: blackgrass (Alopecurus myosuroides); test: Test A postemergence; conditions: Alopecurus myosuroides, post-emergence, 240 h, Postemergence, read-out: Blackgrass plant response rating (0 to 100 scale); for pest or weed control at 125 g/ha: 125 g ai/ha, visual rating about 10 d after treatment; for pest or weed control at 31 g/ha: 31 g ai/ha, 0 is no effect, 100 is complete control
Summary of the method: as §2

[6] = system: wheat (Triticum aestivum); test: Test A postemergence; conditions: Triticum aestivum, post-emergence, 240 h, Postemergence, read-out: Wheat plant response rating (0 to 100 scale); for plant injury at 125 g/ha: 125 g ai/ha, visual rating about 10 d after treatment; for plant injury at 31 g/ha: 31 g ai/ha, 0 is no effect, 100 is complete control
Summary of the method: as §2

[7] = system: ragweed (common ragweed, Ambrosia elatior); test: Test A postemergence; conditions: Ambrosia artemisiifolia, post-emergence, 240 h, Postemergence, read-out: Ragweed plant response rating (0 to 100 scale); for pest or weed control at 125 g/ha: 125 g ai/ha, visual rating about 10 d after treatment; for pest or weed control at 31 g/ha: 31 g ai/ha, 0 is no effect, 100 is complete control
Summary of the method: as §2

[8] = system: ryegrass, Italian (Italian ryegrass, Lolium multiflorum); test: Test A postemergence; conditions: Lolium multiflorum, post-emergence, 240 h, Postemergence, read-out: Ryegrass, Italian plant response rating (0 to 100 scale); for pest or weed control at 125 g/ha: 125 g ai/ha, visual rating about 10 d after treatment; for pest or weed control at 31 g/ha: 31 g ai/ha, 0 is no effect, 100 is complete control
Summary of the method: as §2

Kochia (Kochia scoparia) [9] = test: Test A postemergence; conditions: Bassia scoparia, post-emergence, 240 h, Postemergence, read-out: Kochia plant response rating (0 to 100 scale); for pest or weed control at 125 g/ha: 125 g ai/ha, visual rating about 10 d after treatment; for pest or weed control at 31 g/ha: 31 g ai/ha, 0 is no effect, 100 is complete control
Summary of the method: as §2

[10] = system: Galium (catchweed bedstraw, Galium aparine); test: Test A postemergence; conditions: Galium, post-emergence, 240 h, Postemergence, read-out: Galium plant response rating (0 to 100 scale); for pest or weed control at 125 g/ha: 125 g ai/ha, visual rating about 10 d after treatment; for pest or weed control at 31 g/ha: 31 g ai/ha, 0 is no effect, 100 is complete control
Summary of the method: as §2

[11] = system: pigweed (Amaranthus retroflexus); test: Test A postemergence; conditions: Amaranthus retroflexus, post-emergence, 240 h, Postemergence, read-out: Pigweed plant response rating (0 to 100 scale); for pest or weed control at 125 g/ha: 125 g ai/ha, visual rating about 10 d after treatment; for pest or weed control at 31 g/ha: 31 g ai/ha, 0 is no effect, 100 is complete control
Summary of the method: as §2

[12] = system: barnyardgrass (Echinochloa crus-galli); test: Test A postemergence; conditions: Echinochloa crus-galli, post-emergence, 240 h, Postemergence; for pest or weed control at 125 g/ha: 125 g ai/ha, visual rating about 10 d after treatment, read-out: Barnyardgrass plant response rating (0 to 100 scale, 0 no effect, 100 complete control); for pest or weed control at 31 g/ha: 31 g ai/ha, 0 is no effect, 100 is complete control, read-out: Barnyardgrass plant response rating (0 to 100 scale)
Summary of the method: as §2

corn (Zea mays) = test: Test A postemergence; conditions: Zea mays, post-emergence, 240 h, Postemergence, read-out: Corn plant response rating (0 to 100 scale); for plant injury at 125 g/ha: 125 g ai/ha, visual rating about 10 d after treatment; for plant injury at 31 g/ha: 31 g ai/ha, 0 is no effect, 100 is complete control
Summary of the method: as §2

[13] = system: giant foxtail (Setaria faberii); test: Test A preemergence; conditions: Setaria faberi, pre-emergence, 240 h, 0 to 100 scale where 0 is no effect and 100 is complete control, read-out: Foxtail, Giant plant response rating; for pest or weed control at 31 g/ha: 31 g ai/ha, Preemergence; for pest or weed control at 125 g/ha: 125 g ai/ha, preemergence, visual injury rating, approximately 10 d
Summary of the method: as §2

[14] = system: ragweed (common ragweed, Ambrosia elatior); test: Test A preemergence; conditions: Ambrosia artemisiifolia, pre-emergence, 240 h, 0 to 100 scale where 0 is no effect and 100 is complete control, read-out: Ragweed plant response rating; for pest or weed control at 31 g/ha: 31 g ai/ha, Preemergence; for pest or weed control at 125 g/ha: 125 g ai/ha, preemergence, visual injury rating, approximately 10 d
Summary of the method: as §2

[15] = system: ryegrass, Italian (Italian ryegrass, Lolium multiflorum); test: Test A preemergence; conditions: Lolium multiflorum, pre-emergence, 240 h, 0 to 100 scale where 0 is no effect and 100 is complete control, read-out: Ryegrass, Italian plant response rating; for pest or weed control at 31 g/ha: 31 g ai/ha, Preemergence; for pest or weed control at 125 g/ha: 125 g ai/ha, preemergence, visual injury rating, approximately 10 d
Summary of the method: as §2

Kochia (Kochia scoparia) [16] = test: Test A preemergence; conditions: Bassia scoparia, pre-emergence, 240 h, 0 to 100 scale where 0 is no effect and 100 is complete control, read-out: Kochia plant response rating; for pest or weed control at 31 g/ha: 31 g ai/ha, Preemergence; for pest or weed control at 125 g/ha: 125 g ai/ha, preemergence, visual injury rating, approximately 10 d
Summary of the method: as §2

[17] = system: pigweed (Amaranthus retroflexus); test: Test A preemergence; conditions: Amaranthus retroflexus, pre-emergence, 240 h, 0 to 100 scale where 0 is no effect and 100 is complete control, read-out: Pigweed plant response rating; for pest or weed control at 31 g/ha: 31 g ai/ha, Preemergence; for pest or weed control at 125 g/ha: 125 g ai/ha, preemergence, visual injury rating, approximately 10 d
[18] = system: barnyardgrass (Echinochloa crus-galli); test: Test A preemergence; conditions: Echinochloa crus-galli, pre-emergence, 240 h, 0 to 100 scale where 0 is no effect and 100 is complete control, read-out: Barnyardgrass plant response rating; for pest or weed control at 31 g/ha: 31 g ai/ha, Preemergence; for pest or weed control at 125 g/ha: 125 g ai/ha, preemergence, visual injury rating, approximately 10 d
Summary of the method: as §2

CN1C[C@H](c2csc3c2CCCC3)[C@@H](C(=O)Nc2cccc(F)c2F)C1=O [Compound 1276]
pest or weed control at 250 g/ha [1]: 90% | pest or weed control at 250 g/ha [2]: 65% | pest or weed control at 250 g/ha [3]: 0% | pest or weed control at 250 g/ha (rice (Oryra sativa)): 25% | pest or weed control at 125 g/ha [4]: 60% | pest or weed control at 31 g/ha [4]: 30% | pest or weed control at 125 g/ha [5]: 0% | pest or weed control at 31 g/ha [5]: 0% | plant injury at 125 g/ha [6]: 0% | plant injury at 31 g/ha [6]: 0% | pest or weed control at 125 g/ha [7]: 0% | pest or weed control at 31 g/ha [7]: 0% | pest or weed control at 125 g/ha [8]: 0% | pest or weed control at 31 g/ha [8]: 0% | pest or weed control at 125 g/ha (Kochia (Kochia scoparia) [9]): 0% | pest or weed control at 31 g/ha (Kochia (Kochia scoparia) [9]): 0% | pest or weed control at 125 g/ha [10]: 0% | pest or weed control at 31 g/ha [10]: 0% | pest or weed control at 125 g/ha [11]: 0% | pest or weed control at 31 g/ha [11]: 0% | pest or weed control at 125 g/ha [12]: 100% | pest or weed control at 31 g/ha [12]: 70% | plant injury at 125 g/ha (corn (Zea mays)): 0% | plant injury at 31 g/ha (corn (Zea mays)): 0% | pest or weed control at 31 g/ha [13]: 90% | pest or weed control at 125 g/ha [13]: 100% | pest or weed control at 31 g/ha [14]: 20% | pest or weed control at 125 g/ha [14]: 80% | pest or weed control at 31 g/ha [15]: 0% | pest or weed control at 125 g/ha [15]: 30% | pest or weed control at 31 g/ha (Kochia (Kochia scoparia) [16]): 30% | pest or weed control at 125 g/ha (Kochia (Kochia scoparia) [16]): 60% | pest or weed control at 31 g/ha [17]: 0% | pest or weed control at 125 g/ha [17]: 30% | pest or weed control at 31 g/ha [18]: 90% | pest or weed control at 125 g/ha [18]: 100%

O=C(Nc1cccc(F)c1F)C1C(=O)N(CC(F)F)CC1c1cccc(C(F)(F)F)c1 (stereo not drawn) [Compound 1294]
pest or weed control at 250 g/ha [1]: 0% | pest or weed control at 250 g/ha [2]: 0% | pest or weed control at 250 g/ha [3]: 0% | pest or weed control at 250 g/ha (rice (Oryra sativa)): 0% | pest or weed control at 125 g/ha [4]: 20% | pest or weed control at 31 g/ha [4]: 0% | pest or weed control at 125 g/ha [5]: 0% | pest or weed control at 31 g/ha [5]: 0% | plant injury at 125 g/ha [6]: 0% | plant injury at 31 g/ha [6]: 0% | pest or weed control at 125 g/ha [7]: 0% | pest or weed control at 31 g/ha [7]: 0% | pest or weed control at 125 g/ha [8]: 0% | pest or weed control at 31 g/ha [8]: 0% | pest or weed control at 125 g/ha (Kochia (Kochia scoparia) [9]): 0% | pest or weed control at 31 g/ha (Kochia (Kochia scoparia) [9]): 0% | pest or weed control at 125 g/ha [10]: 0% | pest or weed control at 31 g/ha [10]: 0% | pest or weed control at 125 g/ha [11]: 0% | pest or weed control at 31 g/ha [11]: 0% | pest or weed control at 125 g/ha [12]: 20% | pest or weed control at 31 g/ha [12]: 0% | plant injury at 125 g/ha (corn (Zea mays)): 0% | plant injury at 31 g/ha (corn (Zea mays)): 0% | pest or weed control at 31 g/ha [13]: 0% | pest or weed control at 125 g/ha [13]: 30% | pest or weed control at 31 g/ha [14]: 0% | pest or weed control at 125 g/ha [14]: 0% | pest or weed control at 31 g/ha [15]: 0% | pest or weed control at 125 g/ha [15]: 0% | pest or weed control at 31 g/ha (Kochia (Kochia scoparia) [16]): 0% | pest or weed control at 125 g/ha (Kochia (Kochia scoparia) [16]): 0% | pest or weed control at 31 g/ha [17]: 0% | pest or weed control at 125 g/ha [17]: 0% | pest or weed control at 31 g/ha [18]: 0% | pest or weed control at 125 g/ha [18]: 50%
